Assays:
[1] = tested on: HLA-A*2402 transgenic mice; experiment: CTL induction in vivo in HLA-A*2402 transgenic mice (immunogenicity, Cr51 cytotoxic assay); parameters: key to Immunogenicity: (−) means that none of the mice vaccinated with the corresponding native peptides develops a specific immune response; (+) that less to 50% of vaccinated mice responded; (++) that more that 50% responded; key to Immunogenicity (class): −: (-) means that none of the mice vaccinated with the corresponding native peptides develops a specific immune response; (+) that less to 50% of vaccinated mice responded; (++) that more that 50% responded; settings: for Immunogenicity (X/Y): X mice develop a specific response for a total of Y mice vaccinated / Immunogenicity (class): Table 7, mice vaccinated with the native or modified peptide; for Immunogenicity (class): share of mice responding; for Immunogenicity: Table 5, mice vaccinated with 100 μg native peptide in IFA, share of mice with specific immune response
Protocol: FIG. 1: Panels 1A-1F of FIG. 1 show immunogenicity of HLA-A*2402 cryptic peptides. HLA-A*2402 transgenic mice were vaccinated with the cryptic peptides following the described protocol and generated CTL were tested against T2-A24 targets loaded with peptide as indicated (NR non relevant peptide). Percentage of specific lysis was determined as: Lysis=(Experimental Release−Spontaneous Release)/(Maximal Release−Spontaneous Release)×100. Four CTL dilutions, corresponding to four CTL/target cells ratio were tested.
(§1) The transgenic mice used in the described experiments were obtained by crossing HLA-A24 transgenic mice previously described (Barra et al., 1993) and H2 Kb^− H2 Db^− knock out mice, transgenic for both human β2 microglobulin and CD8α chain (Perarnau et al., 1999).
Mice were injected subcutaneously with 100 μg of peptide emulsified in Incomplete Freund's Adjuvant (IFA) in the presence of 150 μg of the I-A^b restricted HBVcore128 T helper epitope (TPPAYRPPNAPIL, SEQ ID NO: 112). After 15 days, 5×10^7 spleen cells were stimulated twice in vitro with peptide (10 μM), at 6 days interval. On day 13 of culture, the bulk responder populations were tested for specific cytotoxicity against target cells expressing HLA-A*2402 and loaded with the same peptide.
(§2) Targets were labelled with 100 μCi of Cr^51 for 60 min, plated in 96-well V-bottomed plates (3×10^3 cell/well in 100 μL of RPMI 1640 medium) and, when necessary, pulsed with optimized or native peptides (1 μM) at 37° C. for 2 hours. Four dilutions of effector cells were then added in the wells and incubated at 37° C. for 4 hours. Percentage of specific lysis was determined as: Lysis=(Experimental Release−Spontaneous Release)/(Maximal Release−Spontaneous Release)×100.

[2] = tested on: HLA-A*2402 transgenic mice; experiment: Cross-recognition assay: CTL from mice vaccinated with optimized peptide tested on targets loaded with native peptide; format: in vivo; settings: Table 7, CTL of mice vaccinated with the optimized peptide
Protocol: FIG. 2: Panels 2A-2F of FIG. 2 show immunogenicity of HLA-A*2402 restricted optimized cryptic peptides. HLA-A*2402 transgenic mice were vaccinated with the optimized peptide following the described protocol and generated CTL were tested against T2-A24 targets loaded with the optimized (immunogenicity), the corresponding native (native peptide cross recognition) or an irrelevant (NR) peptide as indicated. Percentage of specific lysis was determined as: Lysis=(Experimental Release−Spontaneous Release)/(Maximal Release−Spontaneous Release)×100. Four CTL dilutions, corresponding to four CTL/target cells ratio were tested.
as §1
Mice were injected subcutaneously with 100 μg of optimized peptide emulsified in Incomplete Freund's Adjuvant (IFA) in the presence of 150 μg of the I-A^b restricted HBVcore128 T helper epitope (TPPAYRPPNAPIL, SEQ ID NO: 112). After 15 days, 5×10^7 spleen cells were stimulated firstly in vitro with the optimized peptide (10 μM), and secondly on day 6 of culture with the corresponding native peptide. On day 13, the bulk responder populations were tested for specific cytotoxicity against targets cells expressing HLA-A*2402 and loaded with the optimized, the native or an irrelevant peptide.
as §2

HLA-A*2402 = HLA-A*2402 (Homo sapiens, UniProt P04439, D101N/D140Y/D185E/E176V/E190D/F33S/G103R/G107R/I119L/I121M/I306V/K335N/L105A/L180Q/L300P/N151K/N90K/Q86E/Q94H/R106L/R138H/R89G/T104I/T345S/V100E/W191G/Y123F); experiment: Measurement of peptide relative affinity to HLA-A*2402 (surface expression on T2-A24 cells); format: cell-based; settings: for RA (Relative Affinity): T2-A24 cells, 16 hours at 37° C., relative to reference peptide standard A24, concentration inducing 30% of HLA-A*2402 expression
Protocol: Measurement of Peptide Relative Affinity to HLA-A*2402.
The protocol used has been described previously (Rohrlich et al., 2003). Briefly, T2-A24 cells were incubated at 37° C. for 16 hours with peptides concentrations ranging from 100 μM to 0.1 μM, and then stained with 0041HA monoclonal antibody (mAb)(One Lambda, Inc.) to quantify the surface expression of HLA-A*2402. For each peptide concentration, the HLA-A*2402 specific staining was calculated as the percentage of staining obtained with 100 μM of the reference peptide standard A24 (AYIDNYNKF, SEQ ID NO: 111). The relative affinity (RA) was determined as: RA=(Concentration of each peptide that induces 30% of HLA-A*2402-expression/Concentration of the reference peptide that induces 30% of HLA-A*2402 expression).

Row | RA (Relative Affinity) (HLA-A*2402) | Binding to HLA-A*2402 (in words) (HLA-A*2402) | Sequence | Immunogenicity in HLA-A24 transgenic mice (in words) [1] | Immunogenicity (X/Y): X mice develop a specific response for a total of Y mice vaccinated [1] | Immunogenicity (class) [1] | Native peptide cross recognition (X/Y): X mice develop a specific response for a total of Y mice vaccinated [2] | Native peptide cross recognition (class) [2] | Immunogenicity [1]
1 |  |  | RYLVQVQAL (Optimized peptide derived from cryptic peptides of SEQ ID Nos 1 to 9) [EphA2 502 R1] | developed peptide specific CTLs | 3/3 | ++ ((++) that more that 50% responded) |  |  | 
2 |  |  | PYGKGWDLM (Cryptic HLA-A2402 restricted peptide) [EphA2 47, native cryptic HLA-A*2402 restricted peptide] |  | 0/6 | − | 7/9 | ++ ((++) that more that 50% responded) | −
3 |  |  | KYGVLLKTL (Optimized peptide derived from cryptic peptides of SEQ ID Nos 1 to 9) [TERT 403 K1L9] | developed peptide specific CTLs | 4/15 | + ((+) that less to 50% of vaccinated mice responded) |  |  | 
4 | +/− ((+/−) 10 < RA < 100) |  | PYMRQFVAH (Cryptic HLA-A2402 restricted peptide) [TERT 770, native cryptic HLA-A*2402 restricted peptide] |  | 0/3 | − | 5/18 | + ((+) that less to 50% of vaccinated mice responded) | −
5 | − ((−) means RA > 100) |  | RYEFLWGPR (Cryptic HLA-A2402 restricted peptide) [MAGE 261, native cryptic HLA-A*2402 restricted peptide] |  | 0/3 | − |  |  | −
6 |  |  | RYMRQFVAL (Optimized peptide derived from cryptic peptides of SEQ ID Nos 1 to 9) [TERT 770 R1L9] | developed peptide specific CTLs | 12/18 | ++ ((++) that more that 50% responded) |  |  | 
7 | + ((+) 5 < RA < 10) | binds to the HLA-A*2402 | PYGCLLDHV (Cryptic HLA-A2402 restricted peptide) [Her2/neu 802] | immunogenic |  |  |  |  | ++ ((++) that more that 50% responded)
8 |  |  | RYEFLWGPL (Optimized peptide derived from cryptic peptides of SEQ ID Nos 1 to 9) [MAGE 261 L9, modified peptide] |  | 0/9 | − |  |  | 
9 |  |  | RYGKGWDLL (Optimized peptide derived from cryptic peptides of SEQ ID Nos 1 to 9) [EphA2 47 R1L9] | developed peptide specific CTLs | 7/9 | ++ ((++) that more that 50% responded) |  |  | 
10 |  |  | RYWELSNHL (Optimized peptide derived from cryptic peptides of SEQ ID Nos 1 to 9) [EphA2 817 R1L9] | developed peptide specific CTLs | 2/3 | ++ ((++) that more that 50% responded) |  |  | 
11 | − ((−) means RA > 100) |  | PYNYLSTDV (Cryptic HLA-A2402 restricted peptide) [Her2/neu 300, native cryptic HLA-A*2402 restricted peptide] |  | 0/3 | − |  |  | −
12 | − ((−) means RA > 100) |  | PYDGIPARE (Cryptic HLA-A2402 restricted peptide) [Her2/neu 922, native cryptic HLA-A*2402 restricted peptide] |  |  |  |  |  | 
13 |  |  | PYWELSNHE (Cryptic HLA-A2402 restricted peptide) [EphA2 817, native cryptic HLA-A*2402 restricted peptide] |  | 0/3 | − | 2/3 | ++ ((++) that more that 50% responded) | −
14 |  |  | TYLVQVQAL (Cryptic HLA-A2402 restricted peptide) [EphA2 502, native cryptic HLA-A*2402 restricted peptide] |  | 0/3 | − | 2/3 | ++ ((++) that more that 50% responded) | −
15 |  |  | RYDGIPARL (Optimized peptide derived from cryptic peptides of SEQ ID Nos 1 to 9) [Her2/neu 922 R1L9, modified peptide] |  | 0/9 | − |  |  | 
16 | − ((−) means RA > 100) |  | PYGVLLKTH (Cryptic HLA-A2402 restricted peptide) [TERT 403, native cryptic HLA-A*2402 restricted peptide] |  | 0/3 | − | 3/15 | + ((+) that less to 50% of vaccinated mice responded) | −
17 |  |  | RYVSRLLGI (Optimized peptide derived from cryptic peptides of SEQ ID Nos 1 to 9) [HER 780 R1] | developed peptide specific CTLs | 4/9 | + ((+) that less to 50% of vaccinated mice responded) |  |  | 
18 |  |  | RYNYLSTDL (Optimized peptide derived from cryptic peptides of SEQ ID Nos 1 to 9) [Her2/neu 300 R1L9, modified peptide] |  | 0/9 | − |  |  | 
19 |  | strongly binds | PYVSRLLGI (Cryptic HLA-A2402 restricted peptide) [Her2/neu 780, native cryptic HLA-A*2402 restricted peptide] | non immunogenic | 0/8 | − | 3/9 | + ((+) that less to 50% of vaccinated mice responded) | −
